According to patent US11674965B2, “Method for preparing and analyzing fluorescent compounds in plasma” (MediBeacon, Inc., priority 2017, dated 2023):

Columns and labels:
[1] = cited from earlier work
[2] = Freeze/thaw stability of MB-102 in plasma samples (three cycles, −80° C. to room temperature), HPLC with fluorescence detection; format: physicochemical, human; settings: for % Recovered / Mean Concentration: 3 Freeze/Thaw cycles
Method: (§1) For sample preparation by direct dilution, calibration standards containing 0.4, 1.0, 2.0, 4.0, 10.0, 16.0, 40.0, 100.0, 200.0, 400.0 ng/mL and quality controls at low, mid, and high level of MB-102 were prepared in 1% human plasma in PBS on the day of the validation study or sample analysis. The MB-102 dosing solution (18.6 mg/mL) used in the clinical study was diluted 1/100 first with 1% human plasma in PBS to form a stock solution of 186 μg/mL MB-102. This stock solution is diluted further with 1% human plasma in PBS to form a calibration standard working stock of 2000 ng/mL MB-102 for preparation of calibration standards. A QC working stock at (300 ng/mL) was also prepared from the 186 μg/mL MB-102 stock by dilution with 1% plasma in PBS. The low, mid, and high levels of quality controls were prepared from this QC working stock by dilution with 1% human plasma in PBS.
(§2) For the samples being analyzed by direct dilution, 10 μL of plasma sample (thawed to room temperature and mixed thoroughly) was diluted with 990 μL 1×PBS, mixed thoroughly for about 10 minutes, and centrifuged at 1000 rpm for 2 minutes. It was directly analyzed by HPLC.
(§3) Analyses were performed on a Waters Acquity UPLC H Class Chromatography System, equipped with column heater, sample heater/cooler, vacuum degasser, autosampler, fluorescence detector, and pump capable of delivering a binary gradient. An HPLC analytical column, Phenomenex Luna C18 (2), 4.6×250 mm, 5 μm, 100 Å (Phenomenex, Cat. No. 00G-4252-E0, S/N H15-133556), and a Security Guard Cartridge C18, 4×3 mm ID, 5 μm (Phenomenex, Cat. No. KJ0-4282) were used for the analysis. The Waters Empower 3 software equipped with the UPLC system was used for assay setup, analysis monitoring, and data processing. Two mobile phases, Mobile Phase A: 0.1% Trifluoroacetic acid in water (Fisher, Optima® Grade) and Mobile Phase B: 0.1% Trifluoroacetic acid in acetonitrile (Fisher Scientific, Optima® Grade) were used. The column temperature was set at 30° C., the autosampler temperature was set at 5° C., the excitation wavelength was set at 434 nm and the detection/emission wavelength was set at 556 nm. The counting rate was set at 5 point/sec; the PMT gain was set at 50; the flow cell temperature was ambient; the injection volume was 10 μL. MB-102 elutes at about 3.6 minutes using the gradient shown.
(§4) Using this HPLC method and sample preparation described herein, a validation study was carried out to determine the precision, accuracy, linearity, reproducibility, plasma and sample solution stability, freeze-thaw stability, lowest limits of quantitation, and specificity. The acceptance criterion was ±15% data deviation from normal values excepted at the lowest limit of quantitation (LLOQ) where it was set at ±20%. Samples were analyzed both in-house and at a GMP contract lab to ensure both the validity of the method and accuracy of the results.
(§5) MB-102 stability during sample handling upon long term storage of plasma samples (frozen at −80° C.) and short-term storage (bench top ambient temperature with/without light exposure, and 2-8° C.) of plasma solution was evaluated. Plasma samples were tested for three freeze/thaw cycles (−80° C. to room temperature). The stability of MB-102 in plasma solution at room temperature with/without light exposure, at 2-8° C., and at auto-sampler temperature (5° C.) was evaluated for time intervals of 24 and 48 hours.

[3] = Short-term stability of MB-102 in plasma solution (1% plasma/PBS) at 4° C. or room temperature with/without light, HPLC with fluorescence detection; format: physicochemical, human
Method: as §1, §2, §3, §4, §5

[4] = Pharmacokinetic analysis of MB-102 in plasma of clinical study participants, iohexol co-dosed as reference marker; format: in vivo, human
Method: as §2
as §3, with “The column temperature was set at 30° C., the autosampler temperature was set at 5° C., the excitation wavelength was set at 434 nm and the detection/emission wavelength was set at 556 nm. The counting rate was set at 5 point/sec; the PMT gain was set at 50; the flow cell temperature was ambient; the injection volume was 10 μL. MB-102 elutes at about 3.6 minutes using the gradient shown.” left out
In support of the clinical studies to evaluate the utility of MB-102 for kidney function monitoring via transdermal fluorescence sensing, the plasma samples were prepared from blood samples collected at 0, 5, 10, 15, 30, 60, 90, 120, 180, 240, 300, 360, 480, 600, and 720 minutes of each study participant. […]

[5] = QCs stored at 4° C. for 48 hours, MB-102 3.7 ng/mL
[6] = QCs stored at 4° C. for 48 hours, MB-102 37.9 ng/mL
[7] = QCs stored at 4° C. for 48 hours, MB-102 372.6 ng/mL
[8] = QCs stored at RT with light, MB-102 3.7 ng/mL
[9] = QCs stored at RT with light, MB-102 37.9 ng/mL
[10] = QCs stored at RT with light, MB-102 372.6 ng/mL
[11] = QCs stored at RT without light, MB-102 3.7 ng/mL
[12] = QCs stored at RT without light, MB-102 37.9 ng/mL
[13] = QCs stored at RT without light, MB-102 372.6 ng/mL
[14] = Sample solution at 4° C. for 48 hours, MB-102 1.76 ng/mL
[15] = Sample solution at 4° C. for 48 hours, MB-102 8.81 ng/mL
[16] = Sample solution at 4° C. for 48 hours, MB-102 61.87 ng/mL

## CC(=O)N(CC(O)CO)c1c(I)c(C(=O)NCC(O)CO)c(I)c(C(=O)NCC(O)CO)c1I (centres unmarked) [Iohexol, iohexol]
[1]; patient
  metabolism: not metabolized
[1]; without tubular renal secretion or reabsorption
  route of elimination: entirely eliminated by simple glomerular filtration

## Nc1nc(C(=O)N[C@H](CO)C(=O)O)c(N)nc1C(=O)N[C@H](CO)C(=O)O [MB-102, (2R,2′R)-2,2′-((3,6-diaminopyrazine-2,5-dicarbonyl)bis(azanediyl))bis(3-hydroxypropanoic acid)]
[2]; MB-102 1.76 ng/mL
  % Recovered: 101.7%
  Mean Concentration: 1.79 ng/mL
[2]; MB-102 8.81 ng/mL
  % Recovered: 100.0%
  Mean Concentration: 8.81 ng/mL
[2]; MB-102 61.87 ng/mL
  % Recovered: 100.8%
  Mean Concentration: 62.34 ng/mL
[2]; three freeze/thaw cycles, plasma at −80° C.
  stability over freeze/thaw cycles: very stable
[3]; [5]
  % Recovered: 101.1%
  Mean Concentration: 3.74 ng/mL
[3]; [6]
  % Recovered: 99.1%
  Mean Concentration: 37.55 ng/mL
[3]; [7]
  % Recovered: 100.2%
  Mean Concentration: 373.50 ng/mL
[3]; [8]
  % Recovered: 101.6%
  Mean Concentration: 3.76 ng/mL
[3]; [9]
  % Recovered: 96.0%
  Mean Concentration: 36.40 ng/mL
[3]; [10]
  % Recovered: 97.9%
  Mean Concentration: 364.59 ng/mL
[3]; [11]
  % Recovered: 104.6%
  Mean Concentration: 3.87 ng/mL
[3]; [12]
  % Recovered: 98.0%
  Mean Concentration: 37.15 ng/mL
[3]; [13]
  % Recovered: 100.0%
  Mean Concentration: 372.58 ng/mL
[3]; [14]
  % Recovered: 99.4%
  Mean Concentration: 1.75 ng/mL
[3]; [15]
  % Recovered: 98.3%
  Mean Concentration: 8.66 ng/mL
[3]; [16]
  % Recovered: 98.3%
  Mean Concentration: 60.84 ng/mL
[3]; solution stored at room temperature with light for 48 hours
  degradation of MB-102: 1-2%
[3]; stored at 4° C. for up to 48 hours
  sample solution stability: very stable
[3]; stored at room temperature without light for up to 48 hours
  sample solution stability: very stable
[4]; 12 subjects, FIG. 7
  clearance rate: varies among patients
[4]; three subjects, iohexol co-dosed, FIGS. 8a-8c
  clearance rate compared with iohexol: parallel to that of iohexol
